Patent US20190290631A1, “PHARMACEUTICAL COMPOSITION COMPRISING RAPAMYCIN OR DERIVATIVE THEREOF” (NIPPON KAYAKU KABUSHIKI KAISHA, priority 2016, published 2019)

Experiment: Purity of everolimus in ethanol solution
Assay type: physicochemical
Conditions: dissolved in ethanol, 3 hours/25° C.
Procedure: However, since an aqueous solution of a coating agent needs to be used in order to prepare such a film-coated tablet, the aforementioned method cannot be applied to drugs having low chemical stability against aqueous solvents. […] For example, everolimus as a rapamycin derivative has physical properties, by which when it is dissolved in ethanol to prepare an ethanol solution thereof, its purity is decreased by 4% or more under conditions of 3 hours/25° C. As such, it is not preferable that a film coating technique involving the use of an aqueous solvent be applied, as a pharmaceutical formulation of light-resistant preparations, to a pharmaceutical product tablet comprising, as an active ingredient, rapamycin and a derivative thereof.

decrease in purity in ethanol solution: ≥ 4%
Structure (SMILES): CO[C@H]1C[C@@H]2CC[C@@H](C)[C@@](O)(O2)C(=O)C(=O)N2CCCC[C@H]2C(=O)O[C@H]([C@H](C)C[C@@H]2CC[C@@H](OCCO)[C@H](OC)C2)CC(=O)[C@H](C)/C=C(\C)[C@@H](O)[C@@H](OC)C(=O)[C@H](C)C[C@H](C)/C=C/C=C/C=C/1C [everolimus, 40-O-(2-hydroxyethyl)rapamycin]
